# Measured values from patent publication US20060199211A1, “Fluorous-based microarrays” (priority 2005, published 2006).
# Experiments:
# [1] = test system: lectin from Triticum vulgaris (wheat germ, FITC-WGA); assay: Fluorous carbohydrate microarray screened with FITC-labeled wheat germ lectin (fluorescence scan at 488 nm); assay type: binding; settings: carbohydrates 4-11 spotted (2 mM in 80% methanol/water) on fluorinated glass slide; FITC-WGA in PBS buffer (0.25 M), 30 min; WGA bound only to this one
# Method: (§1) With the fluorous-tagged carbohydrates in hand, the ability of the single C8F17 tail to anchor these mono- and disaccharides to a glass slide surface even after repeated washes was examined. The fluorous-tagged carbohydrates 4-11 were dissolved in 80% methanol/water and were spotted onto fluoroalkylsilane-derivatized glass slides employing a standard robot used for DNA arraying. The slides then were incubated for 30 minutes with the commercially available FITC (fluorescein isothiocyanate)-labeled lectins from Triticum vulgaris (wheat germ, FITC-WGA) in phosphate buffered saline (PBS buffer) (0.25 M) and Arachis hypogaea (peanut, FITC-PNA) in PBS buffer (0.5 M) and rinsed repeatedly with the assay buffer followed by distilled water. After drying, the slide was scanned with a standard fluorescent slide scanner at 488 nm to reveal the carbohydrate-binding specificities of these two lectins. As expected the wheat germ lectin WGA bound only to the fluorous-tagged N-acetylglucosamine (5). In contrast, the peanut lectin PNA bound to both galactose (7) and lactose (10) in the array experiment. This lectin is known to bind to galactose both alone and in the context of the lactose disaccharide. […]
# [2] = target: T1, lectin from Arachis hypogaea (peanut, FITC-PNA) (Arachis hypogaea, UniProt P02872); assay: Fluorous carbohydrate microarray screened with FITC-labeled peanut lectin (fluorescence scan at 488 nm); assay type: binding; settings: carbohydrates 4-11 spotted (2 mM in 80% methanol/water) on fluorinated glass slide; FITC-PNA in PBS buffer (0.5 M), 30 min
# T1 construct: purchased EY Laboratories, San Mateo, Calif
# T1 sequence (P02872 24-273): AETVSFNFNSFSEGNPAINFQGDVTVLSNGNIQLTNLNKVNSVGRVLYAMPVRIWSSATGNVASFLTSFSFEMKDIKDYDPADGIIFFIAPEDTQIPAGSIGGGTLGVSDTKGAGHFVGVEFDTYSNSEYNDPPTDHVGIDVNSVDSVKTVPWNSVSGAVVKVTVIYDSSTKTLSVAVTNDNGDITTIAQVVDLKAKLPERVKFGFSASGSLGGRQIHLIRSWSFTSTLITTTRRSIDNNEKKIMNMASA
# Method: as §1
SMILES,binding of wheat germ lectin WGA to arrayed fluorous-tagged carbohydrate [1],binding of peanut lectin PNA to arrayed fluorous-tagged carbohydrate [2]
"CC(=O)N[C@H]1[C@H](OCCCCOCCCC(F)(F)C(F)(F)C(F)(F)C(F)(F)C(F)(F)C(F)(F)C(F)(F)C(F)(F)F)O[C@H](CO)[C@@H](O)[C@@H]1O [Compound 5, 3-(perfluorooctyl)propanyloxybutanyl-2-deoxy-2-acylamino-β-D-glucopyranoside]",bound,–
OC[C@H]1O[C@@H](OCCCCOCCCC(F)(F)C(F)(F)C(F)(F)C(F)(F)C(F)(F)C(F)(F)C(F)(F)C(F)(F)F)[C@H](O)[C@@H](O)[C@H]1O [Compound 7],–,bound
OC[C@H]1O[C@@H](O[C@H]2[C@H](O)[C@@H](O)[C@H](OCCCCOCCCC(F)(F)C(F)(F)C(F)(F)C(F)(F)C(F)(F)C(F)(F)C(F)(F)C(F)(F)F)O[C@@H]2CO)[C@H](O)[C@@H](O)[C@H]1O [Compound 10],–,bound
